This note sets out measurements from patent US20240317744A1, “Bicyclic Ureas As Kinase Inhibitors” (Incyte Corporation, priority 2023, published 2024).

The target in assay [1] is T1, pseudo-kinase domain (JH2, amino-acids 536-812) of human V617F mutant JAK2 (Homo sapiens, UniProt O60674, F794H/V617F/W659A/W777A).
T1 construct: pseudo-kinase domain (JH2, amino-acids 536-812 with 3 surface mutations W659A, W777A, F794H); His (C); purchased BPS Bioscience 79498; host or cells: baculovirus expression system
T1 sequence (O60674 536-812 V617F/W659A/W777A/F794H): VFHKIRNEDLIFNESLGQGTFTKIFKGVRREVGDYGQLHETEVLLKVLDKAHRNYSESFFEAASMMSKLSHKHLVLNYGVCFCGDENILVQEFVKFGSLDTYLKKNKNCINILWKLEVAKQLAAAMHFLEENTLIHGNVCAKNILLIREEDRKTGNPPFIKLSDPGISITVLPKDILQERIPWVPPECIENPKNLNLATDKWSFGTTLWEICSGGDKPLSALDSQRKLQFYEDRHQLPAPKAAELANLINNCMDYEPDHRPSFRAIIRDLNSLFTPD
The assay is described as follows: JAK2 LanthaScreen JH2-V617F Binding Assay. Particulars: JAK2 JH2-V617F 0.26 nM, 50 nM tracer, 1 hour at 25° C.; read-out: JH2 BIND V617F. The procedure: Example C. JAK2 LanthaScreen JH2-V617F Binding Assay
JAK2 JH2-V617F binding assay utilizes pseudo-kinase domain (JH2, amino-acids 536-812 with 3 surface mutations W659A, W777A, F794H) of human V617F mutant JAK2 expressed as C-terminal His-Avi-tagged, biotinylated protein in a baculovirus expression system (BPS Bioscience, Catalog #79498). The assay was conducted in black 384-well polystyrene plates in a final reaction volume of 20 μL. JAK2 JH2-V617F (0.26 nM) was incubated with compounds (100 nL serially diluted in DMSO) in the presence of 50 nM Fluorescent JAK2-JH2 Tracer (MedChem Express Catalog #HY-102055) and 0.25 nM Streptavidin-Tb cryptate (Cisbio Part #610SATLB) in assay buffer (50 mM Tris, pH=7.5, 10 mM MgCl2, 0.01% Brij-35, 0.1% BSA, 1 mM EGTA, 5% Glycerol and 5 mM DTT). Non-specific binding was accessed in the presence of 2 mM ATP. After incubation for 1 hour at 25° C., LanthaScreen signals were read on a PHERAstar FS plate reader (BMG LABTECH). Data was analyzed with IDBS XLfit and GraphPad Prism 5.0 software using a four parameter dose response curve to determine IC50 for each compound.
In general terms: TR-FRET usually uses a lanthanide donor and a delayed reading to cut background.

The target in assay [2] is catalytic domain (JH1, amino acids 808-1132) of human JAK2 (Homo sapiens, UniProt O60674). Put plainly: JAK2 HTRF Enzyme Activity Assay. It counts as biochemical. As to conditions: ATP 30 µM, 60 minutes at 25° C.; read-out: V617F ENZ 30 UM.
Sequence of catalytic domain (JH1, amino acids 808-1132) of human JAK2 (O60674 808-1132 limits assumed): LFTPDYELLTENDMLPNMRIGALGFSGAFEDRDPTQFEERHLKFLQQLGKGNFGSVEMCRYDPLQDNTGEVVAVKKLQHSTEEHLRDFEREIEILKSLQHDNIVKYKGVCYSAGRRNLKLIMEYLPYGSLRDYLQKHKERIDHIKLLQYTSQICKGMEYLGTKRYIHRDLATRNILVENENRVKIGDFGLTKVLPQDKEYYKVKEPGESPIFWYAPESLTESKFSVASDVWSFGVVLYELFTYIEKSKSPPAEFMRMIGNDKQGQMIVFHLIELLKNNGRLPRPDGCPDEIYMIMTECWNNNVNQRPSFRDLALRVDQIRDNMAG

In the case of `[2H]C1(NC(=O)OC)CC[C@@H](n2c(=O)n(C([2H])([2H])[2H])c3cnc(Nc4cc(C(C)(C)O)c5ccn(-c6cnn(C(F)(F)F)c6)c5n4)cc32)C1` (stereo partly drawn) [Example 131, Methyl ((3R)-3-(6-((4-(2-hydroxypropan-2-yl)-1-(1-(trifluoromethyl)-1H-pyrazol-4-yl)-1H-pyrrolo[2,3-b]pyridin-6-yl)amino)-3-(methyl-d3)-2-oxo-2,3-dihydro-1H-imidazo[4,5-c]pyridin-1-yl)cyclopentyl-1-d)carbamate], the IC50 in assay [1] was not above 10 nM; in assay [2] it was more than 1000 nM.
On the same counts, the results for `[2H]C1(NC(=O)OC)CC[C@@H](n2c(=O)n(C([2H])([2H])[2H])c3cnc(Nc4ccc5c(n4)c(-c4cnn(C(F)(F)F)c4)nn5C4CCOCC4)cc32)C1` (stereo partly drawn) [Example 132, Methyl ((3R)-3-(3-(methyl-d3)-2-oxo-6-((1-(tetrahydro-2H-pyran-4-yl)-3-(1-(trifluoromethyl)-1H-pyrazol-4-yl)-1H-pyrazolo[4,3-b]pyridin-5-yl)amino)-2,3-dihydro-1H-imidazo[4,5-c]pyridin-1-yl)cyclopentyl-1-d)carbamate] are not above 10 nM and more than 1000 nM.
On the same counts, the results for `[2H]C1(NC(=O)OC)CC[C@@H](n2c(=O)n(C([2H])([2H])[2H])c3cnc(Nc4ccc5c(n4)c(-c4cnn(C(F)(F)F)c4)nn5CC4(C#N)CC4)cc32)C1` (stereo partly drawn) [Example 133, Methyl ((3R)-3-(6-((1-((1-cyanocyclopropyl)methyl)-3-(1-(trifluoromethyl)-1H-pyrazol-4-yl)-1H-pyrazolo[4,3-b]pyridin-5-yl)amino)-3-(methyl-d3)-2-oxo-2,3-dihydro-1H-imidazo[4,5-c]pyridin-1-yl)cyclopentyl-1-d)carbamate] are not above 10 nM and more than 1000 nM.
Turning to `[2H]C1(NC(=O)OC)CC[C@@H](n2c(=O)n(C([2H])([2H])[2H])c3cnc(Nc4ccc5nn(CC6(C#N)CC6)c(-c6cnn(C(F)(F)F)c6)c5n4)cc32)C1` (stereo partly drawn) [Example 134, Methyl ((3R)-3-(6-((2-((1-cyanocyclopropyl)methyl)-3-(1-(trifluoromethyl)-1H-pyrazol-4-yl)-2H-pyrazolo[4,3-b]pyridin-5-yl)amino)-3-(methyl-d3)-2-oxo-2,3-dihydro-1H-imidazo[4,5-c]pyridin-1-yl)cyclopentyl-1-d)carbamate], the results for the IC50 in assay [1] and in assay [2] were not above 10 nM and more than 1000 nM, respectively.
The matching figures for `[2H]C([2H])([2H])n1c(=O)n([C@@H]2CC[C@](C)(NC(C)=O)C2)c2cc(Nc3cc(C(C)(C)O)cc(-c4ncc(Cl)s4)n3)ncc21` [Example 136, N-((1S,3R)-3-(6-((6-(5-Chlorothiazol-2-yl)-4-(2-hydroxypropan-2-yl)pyridin-2-yl)amino)-3-(methyl-d3)-2-oxo-2,3-dihydro-1H-imidazo[4,5-c]pyridin-1-yl)-1-methylcyclopentyl)acetamide]: not above 10 nM and more than 1000 nM.
As for `[2H]C([2H])([2H])NC(=O)C12CCC(n3c(=O)n(C([2H])([2H])[2H])c4cnc(Nc5cc(C(C)(C)O)cc(-c6ncc(C(F)(F)F)s6)n5)cc43)(CC1)CC2` [Example 137, 4-(6-((4-(2-Hydroxypropan-2-yl)-6-(5-(trifluoromethyl)thiazol-2-yl)pyridin-2-yl)amino)-3-(methyl-d3)-2-oxo-2,3-dihydro-1H-imidazo[4,5-c]pyridin-1-yl)-N-(methyl-d3)bicyclo[2.2.2]octane-1-carboxamide], the figures for the IC50 in assay [1] and in assay [2] were not above 10 nM and more than 1000 nM, respectively.
In the case of `[2H]C([2H])([2H])n1c(=O)n(C23CCC(C(=O)NC4CC4)(CC2)CC3)c2cc(Nc3cc(C(C)(C)O)cc(-c4ncc(C(F)(F)F)s4)n3)ncc21` [Example 138, N-Cyclopropyl-4-(6-((4-(2-hydroxypropan-2-yl)-6-(5-(trifluoromethyl)thiazol-2-yl)pyridin-2-yl)amino)-3-(methyl-d3)-2-oxo-2,3-dihydro-1H-imidazo[4,5-c]pyridin-1-yl)bicyclo[2.2.2]octane-1-carboxamide], the IC50 is not above 10 nM in assay [1] and more than 1000 nM in assay [2].
With `[2H]C([2H])([2H])n1c(=O)n(C23CCC(C(N)=O)(CC2)CC3)c2cc(Nc3cc(C(C)(C)O)cc(-c4ncc(C(F)(F)F)s4)n3)ncc21` [Example 139, 4-(6-((4-(2-Hydroxypropan-2-yl)-6-(5-(trifluoromethyl)thiazol-2-yl)pyridin-2-yl)amino)-3-(methyl-d3)-2-oxo-2,3-dihydro-1H-imidazo[4,5-c]pyridin-1-yl)bicyclo[2.2.2]octane-1-carboxamide], the IC50 in assay [1] is not above 10 nM; in assay [2] it was more than 1000 nM.
Turning to `[2H]C([2H])([2H])n1c(=O)n(C23CCC(NC(C)=O)(CC2)CC3)c2cc(Nc3cc(C(C)(C)O)cc(-c4ncc(C(F)(F)F)s4)n3)ncc21` [Example 140, N-(4-(6-((4-(2-Hydroxypropan-2-yl)-6-(5-(trifluoromethyl)thiazol-2-yl)pyridin-2-yl)amino)-3-(methyl-d3)-2-oxo-2,3-dihydro-1H-imidazo[4,5-c]pyridin-1-yl)bicyclo[2.2.2]octan-1-yl)acetamide], the results for the IC50 in assay [1] and in assay [2] were not above 10 nM and more than 1000 nM, respectively.
On the same counts, the results for `[2H]C([2H])([2H])n1c(=O)n(C23CCC(C(N)=O)(CC2)C3)c2cc(Nc3cc(C(C)(C)O)cc(-c4ncc(C(F)(F)F)s4)n3)ncc21` [Example 141, 4-(6-((4-(2-Hydroxypropan-2-yl)-6-(5-(trifluoromethyl)thiazol-2-yl)pyridin-2-yl)amino)-3-(methyl-d3)-2-oxo-2,3-dihydro-1H-imidazo[4,5-c]pyridin-1-yl)bicyclo[2.2.1]heptane-1-carboxamide] are not above 10 nM and more than 1000 nM.
The matching figures for `[2H]C([2H])([2H])n1c(=O)n(C23CCC(NC(C)=O)(CC2)C3)c2cc(Nc3cc(C(C)(C)O)cc(-c4ncc(C(F)(F)F)s4)n3)ncc21` [Example 142, N-(4-(6-((4-(2-Hydroxypropan-2-yl)-6-(5-(trifluoromethyl)thiazol-2-yl)pyridin-2-yl)amino)-3-(methyl-d3)-2-oxo-2,3-dihydro-1H-imidazo[4,5-c]pyridin-1-yl)bicyclo[2.2.1]heptan-1-yl)acetamide]: not above 10 nM and more than 1000 nM.
As to `[2H]C([2H])([2H])n1c(=O)n([C@@H]2CC[C@](C)(NC(=O)CC)C2)c2cc(Nc3cc(C(C)(C)O)cc(-c4ncc(C(F)(F)F)s4)n3)ncc21` [Example 143, N-((1S,3R)-3-(6-((4-(2-Hydroxypropan-2-yl)-6-(5-(trifluoromethyl)thiazol-2-yl)pyridin-2-yl)amino)-3-(methyl-d3)-2-oxo-2,3-dihydro-1H-imidazo[4,5-c]pyridin-1-yl)-1-methylcyclopentyl)propionamide], the IC50 in assay [1] was not above 10 nM; in assay [2] it was more than 1000 nM.
The matching figures for `[2H]C([2H])([2H])n1c(=O)n([C@@H]2CC[C@](C)(NC(C)=O)C2)c2cc(Nc3cc(C(C)(C)O)cc(-c4cnc(C(F)(F)F)s4)n3)ncc21` [Example 146, N-((1S,3R)-3-(6-((4-(2-Hydroxypropan-2-yl)-6-(2-(trifluoromethyl)thiazol-5-yl)pyridin-2-yl)amino)-3-(methyl-d3)-2-oxo-2,3-dihydro-1H-imidazo[4,5-c]pyridin-1-yl)-1-methylcyclopentyl)acetamide]: not above 10 nM and more than 1000 nM.
For `[2H]C([2H])([2H])n1c(=O)n([C@@H]2CC[C@@]([2H])(NC(=O)OC)C2)c2cc(Nc3cc(C(C)(C)O)cc(-c4ncc(C(O)(C(F)(F)F)C(F)(F)F)s4)n3)ncc21` [Example 147, Methyl ((1R,3R)-3-(6-((6-(5-(1,1,1,3,3,3-hexafluoro-2-hydroxypropan-2-yl)thiazol-2-yl)-4-(2-hydroxypropan-2-yl)pyridin-2-yl)amino)-3-(methyl-d3)-2-oxo-2,3-dihydro-1H-imidazo[4,5-c]pyridin-1-yl)cyclopentyl-1-d)carbamate], the results for the IC50 in assay [1] and in assay [2] were not above 10 nM and more than 1000 nM, respectively.
The matching figures for `[2H]C([2H])([2H])n1c(=O)n([C@@H]2CC[C@@]([2H])(NC(=O)OC)C2)c2cc(Nc3cc(C)cc(-c4ncc(C(C)(C)O)s4)n3)ncc21` [Example 148, Methyl ((1R,3R)-3-(6-((6-(5-(2-hydroxypropan-2-yl)thiazol-2-yl)-4-methylpyridin-2-yl)amino)-3-(methyl-d3)-2-oxo-2,3-dihydro-1H-imidazo[4,5-c]pyridin-1-yl)cyclopentyl-1-d)carbamate]: not above 10 nM and more than 1000 nM.
On the same counts, the results for `[2H]C([2H])([2H])n1c(=O)n([C@@H]2CC[C@@]([2H])(NC(=O)OC)C2)c2cc(Nc3cc(C)c(F)c(-c4ncc(C(C)(C)O)s4)n3)ncc21` [Example 149, Methyl ((1R,3R)-3-(6-((5-fluoro-6-(5-(2-hydroxypropan-2-yl)thiazol-2-yl)-4-methylpyridin-2-yl)amino)-3-(methyl-d3)-2-oxo-2,3-dihydro-1H-imidazo[4,5-c]pyridin-1-yl)cyclopentyl-1-d)carbamate] are not above 10 nM and more than 1000 nM.
